Assay results: paper PMC6345968, “Structural basis for species-selective targeting of Hsp90 in a pathogenic fungus” (Nature Communications, 2019)
Where two headings read alike, the source gives them in different places. One block for each molecule: values may come before it.

Columns and labels:
[1] = biological target: T1, Hsp90 in C. albicans (SC5314) lysate (Candida albicans, UniProt P46598); test: biochemical; assay type: binding; settings: for EC50: read-out: EC50; for FP signal: raw
T1 construct: endogenous in cells; host or cells: C. albicans SC5314 whole-cell lysate
T1 sequence (P46598 whole entry): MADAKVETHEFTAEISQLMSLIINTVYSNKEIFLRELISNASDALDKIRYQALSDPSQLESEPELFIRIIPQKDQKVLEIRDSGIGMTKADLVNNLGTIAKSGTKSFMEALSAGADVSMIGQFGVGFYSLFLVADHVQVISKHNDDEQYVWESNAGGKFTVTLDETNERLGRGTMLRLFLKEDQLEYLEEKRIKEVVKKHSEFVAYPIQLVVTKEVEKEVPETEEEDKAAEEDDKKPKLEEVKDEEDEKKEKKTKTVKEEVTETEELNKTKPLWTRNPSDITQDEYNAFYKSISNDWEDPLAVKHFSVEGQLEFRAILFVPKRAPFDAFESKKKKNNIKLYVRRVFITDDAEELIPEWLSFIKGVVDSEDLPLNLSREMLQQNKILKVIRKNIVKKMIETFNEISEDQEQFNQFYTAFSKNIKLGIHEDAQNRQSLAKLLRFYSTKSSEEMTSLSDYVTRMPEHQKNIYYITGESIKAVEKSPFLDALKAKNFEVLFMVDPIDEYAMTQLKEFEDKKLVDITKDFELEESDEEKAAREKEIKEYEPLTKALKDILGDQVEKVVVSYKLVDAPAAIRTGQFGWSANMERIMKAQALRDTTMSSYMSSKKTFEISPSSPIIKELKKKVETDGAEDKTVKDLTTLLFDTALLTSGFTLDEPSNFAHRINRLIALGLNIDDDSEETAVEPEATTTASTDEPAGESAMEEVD

Hsp90 in HEPG2 lysate = settings: for FP signal: raw
[2] = EC50 relative to GdA, SC5314 lysate
[3] = EC50 relative to GdA, HEPG2 lysate
[4] = HEPG2 lysate, log concentration 0.137354 (1.372 nM)
[5] = HEPG2 lysate, log concentration 0.61437 (4.115 nM)
[6] = HEPG2 lysate, log concentration 1.09153 (12.346 nM)
[7] = HEPG2 lysate, log concentration 1.56864 (37.037 nM)
[8] = HEPG2 lysate, log concentration 2.04576 (111.111 nM)
[9] = HEPG2 lysate, log concentration 2.52288 (333.333 nM)
[10] = HEPG2 lysate, log concentration 3 (1000 nM)
[11] = HEPG2 lysate, log concentration 3.47712 (3000 nM)
[12] = HEPG2 lysate, log concentration -0.340084 (0.457 nM)
[13] = SC5314 lysate, 0.457 nM compound
[14] = SC5314 lysate, 1.372 nM compound
[15] = SC5314 lysate, 4.115 nM compound
[16] = SC5314 lysate, 12.346 nM compound
[17] = SC5314 lysate, 37.037 nM compound
[18] = SC5314 lysate, 111.111 nM compound
[19] = SC5314 lysate, 333.333 nM compound
[20] = SC5314 lysate, 1000 nM compound
[21] = SC5314 lysate, 3000 nM compound

SMILES: CC1(C)CC(=O)c2c(C(F)(F)F)nn(-c3ccc(C(N)=O)c(N[C@H]4CC[C@H](OC(=O)CN)CC4)c3)c2C1 [SNX-5422]
- Hep/SC ([1]; EC50 HEPG2 / EC50 SC5314): 5.438
- Rel. to GdA [1, 2]: 0.6171
- Hep/Sc rel. Gda ([1]; Hep/SC ratio relative to that of GdA): 4.063
- FP signal (raw) ([1]; SC5314 lysate, 0.457 nM): 205
- FP signal (raw) ([1]; SC5314 lysate, 1.372 nM): 197
- FP signal (raw) ([1]; SC5314 lysate, 4.115 nM): 177
- FP signal (raw) ([1]; SC5314 lysate, 12.346 nM): 118
- FP signal (raw) ([1]; SC5314 lysate, 37.037 nM): 60
- FP signal (raw) ([1]; SC5314 lysate, 111.111 nM): 41
- FP signal (raw) ([1]; SC5314 lysate, 333.333 nM): 35
- FP signal (raw) ([1]; SC5314 lysate, 1000 nM): 33
- FP signal (raw) ([1]; SC5314 lysate, 3000 nM): 34
- EC50 ([1]; SC5314 lysate): 12.1 nM
- Rel. to GdA (Hsp90 in HEPG2 lysate; [3]): 2.507
- EC50 (Hsp90 in HEPG2 lysate; HEPG2 lysate): 65.6 nM
- FP signal, Fxn Control (Hsp90 in HEPG2 lysate; [4]): 0.9858
- FP signal, Fxn Control (Hsp90 in HEPG2 lysate; [5]): 0.9717
- FP signal, Fxn Control (Hsp90 in HEPG2 lysate; [6]): 0.8821
- FP signal, Fxn Control (Hsp90 in HEPG2 lysate; [7]): 0.7028
- FP signal, Fxn Control (Hsp90 in HEPG2 lysate; [8]): 0.4953
- FP signal, Fxn Control (Hsp90 in HEPG2 lysate; [9]): 0.3632
- FP signal, Fxn Control (Hsp90 in HEPG2 lysate; [10]): 0.25
- FP signal, Fxn Control (Hsp90 in HEPG2 lysate; [11]): 0.217
- FP signal, Fxn Control (Hsp90 in HEPG2 lysate; [12]): 0.9858
- FP signal (raw) (Hsp90 in HEPG2 lysate; HepG2 lysate, 0.457 nM): 209
- FP signal (raw) (Hsp90 in HEPG2 lysate; HepG2 lysate, 1.372 nM): 209
- FP signal (raw) (Hsp90 in HEPG2 lysate; HepG2 lysate, 4.115 nM): 206
- FP signal (raw) (Hsp90 in HEPG2 lysate; HepG2 lysate, 12.346 nM): 187
- FP signal (raw) (Hsp90 in HEPG2 lysate; HepG2 lysate, 37.037 nM): 149
- FP signal (raw) (Hsp90 in HEPG2 lysate; HepG2 lysate, 111.111 nM): 105
- FP signal (raw) (Hsp90 in HEPG2 lysate; HepG2 lysate, 333.333 nM): 77
- FP signal (raw) (Hsp90 in HEPG2 lysate; HepG2 lysate, 1000 nM): 53
- FP signal (raw) (Hsp90 in HEPG2 lysate; HepG2 lysate, 3000 nM): 46

- Ratio re. GdA [1, 2]: 24.5326
- FP signal (raw) ([1]; SC5314 lysate, 0.457 nM): 193
- FP signal relative to 0 nM [1, 13]: 0.9461
- FP signal [1, 13]: 193
- FP signal (raw) ([1]; SC5314 lysate, 1.372 nM): 197
- FP signal relative to 0 nM [1, 14]: 0.9657
- FP signal [1, 14]: 197
- FP signal (raw) ([1]; SC5314 lysate, 4.115 nM): 190
- FP signal relative to 0 nM [1, 15]: 0.9314
- FP signal [1, 15]: 190
- FP signal (raw) ([1]; SC5314 lysate, 12.346 nM): 193
- FP signal relative to 0 nM [1, 16]: 0.9461
- FP signal [1, 16]: 193
- FP signal (raw) ([1]; SC5314 lysate, 37.037 nM): 190
- FP signal relative to 0 nM [1, 17]: 0.9314
- FP signal [1, 17]: 190
- FP signal (raw) ([1]; SC5314 lysate, 111.111 nM): 176
- FP signal relative to 0 nM [1, 18]: 0.8627
- FP signal [1, 18]: 176
- FP signal (raw) ([1]; SC5314 lysate, 333.333 nM): 131
- FP signal relative to 0 nM [1, 19]: 0.6422
- FP signal [1, 19]: 131
- FP signal (raw) ([1]; SC5314 lysate, 1000 nM): 57
- FP signal relative to 0 nM [1, 20]: 0.2794
- FP signal [1, 20]: 57
- FP signal (raw) ([1]; SC5314 lysate, 3000 nM): 38
- FP signal relative to 0 nM [1, 21]: 0.1863
- FP signal [1, 21]: 38
- EC50 ([1]; SC5314 lysate, not normalized, oxime panel experiment 220817): 417 nM
- HepG2/SC5314 ([1]; ratio of GdA-normalized EC50s, human over fungal lysate): 1.34
- HepG2/SC5314 ([1]; ratio of GdA-relative EC50 ratios, HepG2 over SC5314): 1.34
- EC50 (Hsp90 in HEPG2 lysate; HepG2 lysate, oxime panel experiment 220817): 729 nM
SMILES: COc1ccccc1CON=C1C=CC=CC2OC2CC(C)OC(=O)c2c(O)cc(O)c(Cl)c2C1 (mixture of isomers) [compound 226]
- Ratio rel. GdA (HepG2) (Hsp90 in HEPG2 lysate; EC50 / EC50 of GdA in HepG2 lysate): 32.872
- Ratio rel. GdA (HepG2) (Hsp90 in HEPG2 lysate; [3]): 32.872
- FP signal, Fxn Control (Hsp90 in HEPG2 lysate; [4]): 0.9856
- FP signal, Fxn Control (Hsp90 in HEPG2 lysate; [5]): 0.9952
- FP signal, Fxn Control (Hsp90 in HEPG2 lysate; [6]): 0.9952
- FP signal, Fxn Control (Hsp90 in HEPG2 lysate; [7]): 0.9809
- FP signal, Fxn Control (Hsp90 in HEPG2 lysate; [8]): 0.9426
- FP signal, Fxn Control (Hsp90 in HEPG2 lysate; [9]): 0.8517
- FP signal, Fxn Control (Hsp90 in HEPG2 lysate; [10]): 0.445
- FP signal, Fxn Control (Hsp90 in HEPG2 lysate; [11]): 0.2105
- FP signal, Fxn Control (Hsp90 in HEPG2 lysate; [12]): 0.9713
- FP signal (raw) (Hsp90 in HEPG2 lysate; HepG2 lysate, 0.457 nM): 203
- FP signal (Hsp90 in HEPG2 lysate; HepG2 lysate, 0.457 nM compound): 203
- FP signal (raw) (Hsp90 in HEPG2 lysate; HepG2 lysate, 1.372 nM): 206
- FP signal (Hsp90 in HEPG2 lysate; HepG2 lysate, 1.372 nM compound): 206
- FP signal (raw) (Hsp90 in HEPG2 lysate; HepG2 lysate, 4.115 nM): 208
- FP signal (Hsp90 in HEPG2 lysate; HepG2 lysate, 4.115 nM compound): 208
- FP signal (raw) (Hsp90 in HEPG2 lysate; HepG2 lysate, 12.346 nM): 208
- FP signal (Hsp90 in HEPG2 lysate; HepG2 lysate, 12.346 nM compound): 208
- FP signal (raw) (Hsp90 in HEPG2 lysate; HepG2 lysate, 37.037 nM): 205
- FP signal (Hsp90 in HEPG2 lysate; HepG2 lysate, 37.037 nM compound): 205
- FP signal (raw) (Hsp90 in HEPG2 lysate; HepG2 lysate, 111.111 nM): 197
- FP signal (Hsp90 in HEPG2 lysate; HepG2 lysate, 111.111 nM compound): 197
- FP signal (raw) (Hsp90 in HEPG2 lysate; HepG2 lysate, 333.333 nM): 178
- FP signal (Hsp90 in HEPG2 lysate; HepG2 lysate, 333.333 nM compound): 178
- FP signal (raw) (Hsp90 in HEPG2 lysate; HepG2 lysate, 1000 nM): 93
- FP signal (Hsp90 in HEPG2 lysate; HepG2 lysate, 1000 nM compound): 93
- FP signal (raw) (Hsp90 in HEPG2 lysate; HepG2 lysate, 3000 nM): 44
- FP signal (Hsp90 in HEPG2 lysate; HepG2 lysate, 3000 nM compound): 44
